From publication PMC11071649, “Synthesis and Selective Anticancer Activity Evaluation of 2-phenylacrylonitrile Derivatives as Tubulin Inhibitors” (Current Medicinal Chemistry, 2024)

Tests used:
Type in all cases: cell-based, human
[1] = test system: A549 lung cancer cell; assay: MTT anti-proliferative assay, A549; details: for IC50: MTT, 48 h
Experimental: (§1) The anti-proliferation activities of the synthesized analogs were assessed by an in vitro MTT assay conducted on thirteen human cell lines. Their cytotoxic activities were evaluated by measuring the inhibition of net cell growth. […]
(§2) 1.6. Cell lines and cell culture
(§3) MTT was purchased from Sigma-Aldrich Co. (St. Louis, MO, USA). The PI and Annexin V-FITC apoptosis detection kit were purchased from Invitrogen (Eugene, OR, USA). All human cell lines were used in this study. […]
(§4) cell, MCF-7 breast cancer cell, MCF-10A normal breast cell, Raji B lymphoblastoid cell and diffuse large B-cell lymphoma SU-DHL-10 cell were initially purchased from American Type Culture Collection (ATCC, Manassas, Virginia). media, DMEM, and FBS were provided from Gibco Company.
(§5) 1.7. Cell growth inhibition assay (MTT assay)
(§6) The experiment was carried out according to the method of reference. Briefly, cells were plated in 96-well plates at a den- […]
(§7) the anti-proliferative activities were determined by MTT assay. […]
(§8) (Becton-Dickinson, Franklin Lakes, NJ). […]

[2] = test system: AGS gastric cancer cell; assay: MTT anti-proliferative assay, AGS; details: for IC50: MTT, 48 h
Experimental: as §1, §2, §3, §4, §5, §6, §7, §8

[3] = test system: BEL-7402 liver cancer cell; assay: MTT anti-proliferative assay, BEL-7402; details: for IC50: MTT, 48 h
Experimental: as §1, §2, §3, §4, §5, §6, §7, §8

[4] = test system: HCT116 colectal cancer cell; assay: MTT anti-proliferative assay, HCT116; details: for IC50: MTT, 48 h, read-out: IC50 HCT-116
Experimental: as §1, §2, §3, §4, §5, §6, §7, §8

[5] = test system: HeLa cervical cancer cell; assay: MTT anti-proliferative assay, HeLa; details: for IC50: MTT, 48 h
Experimental: as §1, §2, §3, §4, §5, §6, §7, §8

[6] = test system: HepG2 hepatoma cell; assay: MTT anti-proliferative assay, HepG2; details: for IC50: MTT, 48 h, read-out: IC50 HepG-2
Experimental: as §1, §2, §3, §4, §5, §6, §7, §8

[7] = test system: L-02 normal liver cell; assay: MTT assay, L-02 normal cells; details: 48 h
Experimental: as §1, §2, §3, §4, §5, §6, §7, §8

[8] = test system: MGC-803 late stage differentiation gastric cancer cell; assay: MTT anti-proliferative assay, MGC-803; details: for IC50: MTT, 48 h
Experimental: as §1, §2, §3, §4, §5, §6, §7, §8

[9] = test system: MCF-7 breast cancer cell; assay: MTT anti-proliferative assay, MCF-7; details: for IC50: MTT, 48 h
Experimental: as §1, §2, §3, §4, §5, §6, §7, §8

[10] = test system: MCF-10A normal breast cell; assay: MTT assay, MCF-10A normal cells; details: 48 h
Experimental: as §1, §2, §3, §4, §5, §6, §7, §8

[11] = test system: Raji B lymphoblastoid cell; assay: MTT anti-proliferative assay, Raji; details: for IC50: MTT, 48 h, read-out: IC50 Raji
Experimental: as §1, §2, §3, §4, §5, §6, §7, §8

[12] = test system: SGC-7901 early differentiation gastric cancer cell; assay: MTT anti-proliferative assay, SGC-7901; details: for IC50: MTT, 48 h
Experimental: as §1, §2, §3, §4, §5, §6, §7, §8

[13] = test system: diffuse large B-cell lymphoma SU-DHL-10 cell; assay: MTT anti-proliferative assay, SU-DHL-10; details: for IC50: MTT, 48 h, read-out: IC50 SU-DHL-10
Experimental: as §1, §2, §3, §4, §5, §6, §7, §8

Row | SMILES | IC50 [1] [µM] | IC50 [2] [µM] | IC50 [3] [µM] | IC50 [4] [µM] | IC50 [5] [µM] | IC50 [6] [µM] | IC50 [7] [µM] | IC50 [8] [µM] | IC50 [9] [µM] | IC50 [10] [µM] | IC50 [11] [µM] | IC50 [12] [µM] | IC50 [13] [µM] | SI (selectivity index), IC50 (L-02)/IC50 (AGS) [2] | SI (selectivity index), IC50 (L-02)/IC50 (HCT-116) [4] | SI (selectivity index), IC50 (L-02)/IC50 (MGC-803) [8] | SI (selectivity index), IC50 (L-02)/IC50 (Raji) [11] | SI (selectivity index), IC50 (L-02)/IC50 (SGC-7901) [12] | SI (selectivity index), IC50 (L-02)/IC50 (SU-DHL-10) [13] | other results
1 | N#C/C(=C\c1ccccc1)c1ccc(OC(F)(F)F)cc1 [Compound 1a2a] | > 100 | > 100 | > 100 | > 100 | > 100 | > 100 | > 100 | > 100 | > 100 | > 100 | > 100 | > 100 | > 100 | – | – | – | – | – | – | –
2 | N#C/C(=C\c1ccc(F)cc1)c1ccc(OC(F)(F)F)cc1 [Compound 1a2b] | > 100 | 13.2 ± 3.3 | 15 ± 2.7 | 23.5 ± 4.6 | – | > 100 | > 100 | 37.4 ± 5.8 | > 100 | > 100 | 49 ± 7.4 | > 100 | 38.8 ± 3.7 | – | – | – | – | – | – | –
3 | N#C/C(=C\c1ccc(Cl)cc1)c1ccc(OC(F)(F)F)cc1 [Compound 1a2c] | 65.8 ± 8.9 | 18.6 ± 3 | > 100 | 20.2 ± 1.7 | 72.3 ± 2.4 | 20.7 ± 1.4 | > 100 | 35.2 ± 2.8 | 55.2 ± 2.8 | > 100 | 55.1 ± 3.2 | 56.4 ± 9.7 | > 100 | > 5.3 | > 4.9 | > 2.8 | > 1.8 | > 1.7 | – | SI (selectivity index), IC50 (L-02)/IC50 (A549) [1]: > 1.5; SI (selectivity index), IC50 (L-02)/IC50 (HeLa) [5]: > 1.3; SI (selectivity index), IC50 (L-02)/IC50 (HepG-2) [6]: > 4.8; SI (selectivity index), IC50 (MCF-10A)/IC50 (MCF-7) [9]: > 1.8
4 | N#C/C(=C\c1ccc(Br)cc1)c1ccc(OC(F)(F)F)cc1 [Compound 1a2d] | > 100 | 19.6 ± 2.9 | > 100 | 25.4 ± 6.8 | 87.3 ± 4.1 | 24.3 ± 3.4 | > 100 | > 100 | > 100 | > 100 | 64.9 ± 1.5 | > 100 | 73.5 ± 17.3 | > 5.0 | > 3.9 | – | > 1.5 | – | > 1.3 | SI (selectivity index), IC50 (L-02)/IC50 (HeLa) [5]: > 1.1; SI (selectivity index), IC50 (L-02)/IC50 (HepG-2) [6]: > 4.1
5 | Cc1ccc(/C=C(\C#N)c2ccc(OC(F)(F)F)cc2)cc1 [Compound 1a2e] | > 100 | 30.8 ± 7.9 | > 100 | > 100 | > 100 | > 100 | > 100 | > 100 | > 100 | > 100 | > 100 | > 100 | > 100 | > 3.2 | – | – | – | – | – | –
6 | CCc1ccc(/C=C(\C#N)c2ccc(OC(F)(F)F)cc2)cc1 [Compound 1a2f] | > 100 | 14.6 ± 5.9 | > 100 | 43.5 ± 3.8 | > 100 | > 100 | > 100 | 56.7 ± 11 | 59.9 ± 2.3 | > 100 | 42.7 ± 3.4 | 77.9 ± 12.6 | 15.1 ± 11.6 | > 6.8 | > 2.2 | > 1.7 | > 2.3 | > 1.2 | > 6.6 | SI (selectivity index), IC50 (MCF-10A)/IC50 (MCF-7) [9]: > 1.6
7 | CC(C)c1ccc(/C=C(\C#N)c2ccc(OC(F)(F)F)cc2)cc1 [Compound 1a2g] | 71.6 ± 24.7 | 8.7 ± 2.1 | > 100 | 57.4 ± 7.8 | > 100 | > 100 | > 100 | > 100 | > 100 | > 100 | 66.6 ± 13.3 | 89.9 ± 5.6 | 27.3 ± 5.3 | > 11.4 | > 1.7 | – | > 1.5 | > 1.1 | > 3.6 | SI (selectivity index), IC50 (L-02)/IC50 (A549) [1]: > 1.3
8 | CN(C)c1ccc(/C=C(\C#N)c2ccc(OC(F)(F)F)cc2)cc1 [Compound 1a2h] | > 100 | 69.6 ± 15.7 | 24.1 ± 2.8 | 8.7 ± 1.7 | > 100 | > 100 | > 100 | 16.8 ± 0.7 | > 100 | > 100 | 67.4 ± 31.7 | 19.7 ± 1.5 | > 100 | > 1.4 | > 11.4 | > 5.9 | > 1.4 | > 5.0 | – | SI (selectivity index), IC50 (L-02)/IC50 (BEL-7402) [3]: > 4.1
9 | CCN(CC)c1ccc(/C=C(\C#N)c2ccc(OC(F)(F)F)cc2)cc1 [Compound 1a2i] | > 100 | > 100 | > 100 | > 100 | > 100 | > 100 | > 100 | > 100 | > 100 | > 100 | 45.1 ± 15.6 | > 100 | > 100 | – | – | – | > 2.2 | – | – | –
